Reference: article PMC12203311, “Design, synthesis, in silico and in vitro evaluation of pyrrole–indole hybrids as dual tubulin and aromatase inhibitors with potent anticancer activities” (RSC Advances, 2025)
Where two headings read alike, the source gives them in different places.

Columns and labels:
MCF7 = assay: NCI60 five-dose screen; type: cell-based; details: Homo sapiens, MCF7, breast cancer; for CC50: read-out: LC50 (the source's name)
SF-295 = assay: NCI60 five-dose screen; type: cell-based; details: Homo sapiens, SF-295, CNS cancer; for CC50: read-out: LC50 (the source's name)
PC-3 = assay: NCI60 five-dose screen; type: cell-based; details: Homo sapiens, PC-3, prostate cancer; for CC50: read-out: LC50 (the source's name)
U251 = assay: NCI60 five-dose screen; type: cell-based; details: Homo sapiens, U-251, U251, CNS cancer; for CC50: read-out: LC50 (the source's name)
SK-MEL-2 = assay: NCI60 five-dose screen; type: cell-based; details: Homo sapiens, SK-MEL-2, melanoma; for CC50: read-out: LC50 (the source's name)
NCI-H522 = assay: NCI60 five-dose screen; type: cell-based; details: Homo sapiens, NCI-H522, NSC lung cancer; for CC50: read-out: LC50 (the source's name)
K-562 = assay: NCI60 five-dose screen; type: cell-based; details: Homo sapiens, K562, K-562, leukemia; for CC50: read-out: LC50 (the source's name)
UO-31 = assay: NCI60 five-dose screen; type: cell-based; details: Homo sapiens, UO-31, renal cancer; for CC50: read-out: LC50 (the source's name)
HCT-15 = assay: NCI60 five-dose screen; type: cell-based; details: Homo sapiens, HCT-15, colon cancer; for CC50: read-out: LC50 (the source's name)
SW-620 = assay: NCI60 five-dose screen; type: cell-based; details: Homo sapiens, SW-620, colon cancer; for CC50: read-out: LC50 (the source's name)
SN12C = assay: NCI60 five-dose screen; type: cell-based; details: Homo sapiens, renal cancer; for CC50: read-out: LC50 (the source's name)
NCI/ADR-RES = assay: NCI60 five-dose screen; type: cell-based, human; details: ovarian cancer; for CC50: read-out: LC50 (the source's name)
SK-MEL-28 = assay: NCI60 five-dose screen; type: cell-based; details: Homo sapiens, SK-MEL-28, melanoma; for CC50: read-out: LC50 (the source's name)
[1] = Cytotoxicity MTT assay, L929; type: cell-based, mouse; details: mouse, L929 fibroblast cells; MTT, 48 hours
In short: (§1)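 Both lines were handled identically: 10 000 cells per well, overnight growth, 48 h with compound at the chosen concentrations, then 0.5 mg mL^−1 MTT for 3 h. Dissolved formazan was quantified at 570 nm against vehicle-treated wells.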

[2] = tested on: L929 normal mouse fibroblast cell line; assay: Cytotoxicity MTT assay, L929; type: cell-based; details: IC50 (L929)/IC50 (T47D)
In short: as §1

RXF 393 = assay: NCI60 five-dose screen; type: cell-based; details: Homo sapiens, RXF 393, renal cancer; for CC50: read-out: LC50 (the source's name)
EKVX = assay: NCI60 five-dose screen; type: cell-based; details: Homo sapiens, NSC lung cancer; for CC50: read-out: LC50 (the source's name)
OVCAR-4 = assay: NCI60 five-dose screen; type: cell-based; details: Homo sapiens, OVCAR-4, ovarian cancer; for CC50: read-out: LC50 (the source's name)
MOLT-4 = assay: NCI60 five-dose screen; type: cell-based; details: Homo sapiens, MOLT-4, leukemia; for CC50: read-out: LC50 (the source's name)
IGROV1 = assay: NCI60 five-dose screen; type: cell-based; details: Homo sapiens, IGROV-1; IGROV1, ovarian cancer
[3] = tested on: T47D breast cancer cell line; assay: Cytotoxicity MTT assay, T47D; type: cell-based, human; details: Homo sapiens, T47D; MTT, 48 hours
In short: as §1

OVCAR-8 = assay: NCI60 five-dose screen; type: cell-based; details: Homo sapiens, OVCAR-8, ovarian cancer; for CC50: read-out: LC50 (the source's name)
KM12 = assay: NCI60 five-dose screen; type: cell-based; details: Homo sapiens, KM12, colon cancer; for CC50: read-out: LC50 (the source's name)
NCI-H322M = assay: NCI60 five-dose screen; type: cell-based; details: Homo sapiens, NSC lung cancer; for CC50: read-out: LC50 (the source's name)
HOP-92 = assay: NCI60 five-dose screen; type: cell-based; details: Homo sapiens, HOP-92, NSC lung cancer; for CC50: read-out: LC50 (the source's name)
SF-539 = assay: NCI60 five-dose screen; type: cell-based; details: Homo sapiens, SF-539, CNS cancer; for CC50: read-out: LC50 (the source's name)
NCI-H460 = assay: NCI60 five-dose screen; type: cell-based; details: Homo sapiens, NCI-H460, NSC lung cancer; for CC50: read-out: LC50 (the source's name)
T-47D = assay: NCI60 five-dose screen; type: cell-based; details: Homo sapiens, T47D, breast cancer; for CC50: read-out: LC50 (the source's name)
CCRF-CEM = assay: NCI60 five-dose screen; type: cell-based; details: Homo sapiens, leukemia; for CC50: read-out: LC50 (the source's name)
UACC-257 = assay: NCI60 five-dose screen; type: cell-based; details: Homo sapiens, UACC-257, melanoma; for CC50: read-out: LC50 (the source's name)
HT29 = assay: NCI60 five-dose screen; type: cell-based; details: Homo sapiens, HT-29, HT29, colon cancer; for CC50: read-out: LC50 (the source's name)
HCT-116 = assay: NCI60 five-dose screen; type: cell-based; details: Homo sapiens, HCT-116, colon cancer; for CC50: read-out: LC50 (the source's name)

`Cc1cc(C)c(/C=N/NC(=O)c2[nH]c3ccc(Br)cc3c2-c2ccccc2)[nH]1` [Derivative 3c, (E)-5-Bromo-N′-((3,5-dimethyl-1H-pyrrol-2-yl)methylene)-3-phenyl-1H-2-carbohydrazide] gave a GI50 (MCF7) of 2.3 µM, a CC50 (MCF7) of 37.2 µM and a GI50 (SF-295) of 2.76 µM. It also gave a CC50 (SF-295) of 29.5 µM, a GI50 (PC-3) of 2.06 µM and a CC50 (PC-3) of 47.6 µM. It also gave a GI50 (U251) of 3.21 µM, a CC50 (U251) of 35.7 µM and a GI50 (SK-MEL-2) of 3.37 µM. It also gave a CC50 (SK-MEL-2) of 41.7 µM, a GI50 (NCI-H522) of 2.61 µM and a CC50 (NCI-H522) of 32.7 µM. For the same molecule, the GI50 (K-562) was 2.43 µM, the CC50 (K-562) was over 100 µM and the GI50 (UO-31) was 1.77 µM. It also gave a CC50 (UO-31) of 33.8 µM, a GI50 (HCT-15) of 2.91 µM and a CC50 (HCT-15) of 37.2 µM. It also gave a GI50 (SW-620) of 3.06 µM, a CC50 (SW-620) of 42 µM and a GI50 (SN12C) of 2.58 µM. The CC50 (SN12C) was 32.3 µM, the GI50 (NCI/ADR-RES; Homo sapiens) was 2.11 µM and the CC50 (NCI/ADR-RES; Homo sapiens) was 19.3 µM. It also gave a GI50 (SK-MEL-28) of 3.81 µM, a CC50 (SK-MEL-28) of 38.8 µM and an IC50 at 48 h [1] of 29.5 ± 12.6 µM. The “Selectivity index (SI)” value [2] was 2.54, the GI50 (RXF 393) was 2.26 µM and the CC50 (RXF 393) was 35 µM. It also gave a GI50 (EKVX) of 3.24 µM, a CC50 (EKVX) of 35.4 µM and a GI50 (OVCAR-4) of 3.55 µM. It also gave a CC50 (OVCAR-4) of 40.7 µM, a GI50 (MOLT-4) of 2.29 µM and a CC50 (MOLT-4) of over 100 µM. For the same molecule, the GI50 (IGROV1) was 2.47 µM, the IC50 [3] was 11.6 ± 0.3 µM and the GI50 (OVCAR-8) was 3.1 µM. For the same molecule, the CC50 (OVCAR-8) was 45 µM, the GI50 (KM12) was 2.96 µM and the CC50 (KM12) was 35.4 µM. It also gave a GI50 (NCI-H322M) of 2.69 µM, a CC50 (NCI-H322M) of 38.7 µM and a GI50 (HOP-92) of 2.61 µM. The CC50 (HOP-92) was 43.5 µM, the GI50 (SF-539) was 2.93 µM and the CC50 (SF-539) was 32.4 µM. It also gave a GI50 (NCI-H460) of 2.83 µM, a CC50 (NCI-H460) of 37.9 µM and a GI50 (T-47D) of 4.68 µM. It also gave a CC50 (T-47D) of 77.6 µM, a GI50 (CCRF-CEM) of 3.07 µM and a CC50 (CCRF-CEM) of over 100 µM. For the same molecule, the GI50 (UACC-257) was 4.35 µM, the CC50 (UACC-257) was 49.2 µM and the GI50 (HT29) was 3.53 µM. The CC50 (HT29) was 46.6 µM, the GI50 (HCT-116) was 4.02 µM and the CC50 (HCT-116) was over 100 µM.

`O=C(N/N=C/c1cc(Br)c[nH]1)c1[nH]c2ccc(Br)cc2c1-c1ccccc1` [Derivative 3e, (E)-5-Bromo-N′-((4-bromo-1H-pyrrol-2-yl)methylene)-3-phenyl-1H-indole-2-carbohydrazide] showed a GI50 (MCF7) of 0.294 µM, a CC50 (MCF7) of 30.7 µM and a GI50 (SF-295) of 0.254 µM. For the same molecule, the CC50 (SF-295) was 25.9 µM, the GI50 (PC-3) was 0.382 µM and the CC50 (PC-3) was 38.1 µM. For the same molecule, the GI50 (U251) was 0.418 µM, the CC50 (U251) was 10.1 µM and the GI50 (SK-MEL-2) was 0.322 µM. For the same molecule, the CC50 (SK-MEL-2) was 38.1 µM, the GI50 (NCI-H522) was 0.185 µM and the CC50 (NCI-H522) was 19.1 µM. It also gave a GI50 (K-562) of 0.393 µM, a CC50 (K-562) of over 100 µM and a GI50 (UO-31) of 0.618 µM. The CC50 (UO-31) was 28.1 µM, the GI50 (HCT-15) was 0.28 µM and the CC50 (HCT-15) was 13.5 µM. It also gave a GI50 (SW-620) of 0.405 µM, a CC50 (SW-620) of 59.4 µM and a GI50 (SN12C) of 0.31 µM. The CC50 (SN12C) was 5.49 µM, the GI50 (NCI/ADR-RES; Homo sapiens) was 0.197 µM and the CC50 (NCI/ADR-RES; Homo sapiens) was 0.97 µM. It also gave a CC50 (NCI/ADR-RES) of 0.971 µM, a GI50 (SK-MEL-28) of 0.612 µM and a CC50 (SK-MEL-28) of 43.9 µM. For the same molecule, the IC50 at 48 h [1] was 22.3 ± 11.9 µM, the “Selectivity index (SI)” value [2] was 9.29 and the GI50 (RXF 393) was 0.497 µM. The CC50 (RXF 393) was 37.9 µM, the GI50 (EKVX) was 0.62 µM and the CC50 (EKVX) was 34.3 µM. For the same molecule, the GI50 (OVCAR-4) was 1.35 µM, the CC50 (OVCAR-4) was 40.5 µM and the GI50 (MOLT-4) was 0.375 µM. The CC50 (MOLT-4) was over 100 µM, the GI50 (IGROV1) was 0.44 µM and the IC50 [3] was 2.4 ± 1.4 µM. It also gave a GI50 (OVCAR-8) of 0.304 µM, a CC50 (OVCAR-8) of 18.2 µM and a GI50 (KM12) of 0.301 µM. It also gave a CC50 (KM12) of 16.3 µM, a GI50 (NCI-H322M) of 0.578 µM and a CC50 (NCI-H322M) of 38.8 µM. The GI50 (HOP-92) was 1.51 µM, the CC50 (HOP-92) was 26.3 µM and the GI50 (SF-539) was 0.214 µM. The CC50 (SF-539) was 25.5 µM, the GI50 (NCI-H460) was 0.353 µM and the CC50 (NCI-H460) was 43.2 µM. The GI50 (T-47D) was 1.4 µM, the CC50 (T-47D) was 82.5 µM and the GI50 (CCRF-CEM) was 0.341 µM. For the same molecule, the CC50 (CCRF-CEM) was over 100 µM, the GI50 (UACC-257) was 1.09 µM and the CC50 (UACC-257) was 47 µM. It also gave a GI50 (HT29) of 0.345 µM, a CC50 (HT29) of 8.24 µM and a GI50 (HCT-116) of 0.242 µM. It also gave a CC50 (HCT-116) of 85 µM.
